Structures are written as SMILES.

The record followed here is the SangsterLogP compilation.

The data set can be described thus: method code SF-AS, from DOI: 10.1897/1552-8618(1992)11[901:aapohp]2.0.co;2.
For `CC(=O)Nc1c(C(C)C)cccc1C(C)C`, the logP (usually the decadic logarithm of the partition coefficient of the neutral form, usually between octanol and water) is 2.41.

Take `COc1c(C)cccc1NC(C)=O`: the logP was 1.28. Take `Cc1cccc(Cl)c1C(N)=O`: the lipophilicity (logP) is 0.89. As for `CC(=O)Nc1cc(C(F)(F)F)cc(C(F)(F)F)c1Br`, the figure is 3.51. Regarding `CC(=O)Nc1cc(C(F)(F)F)cc(Cl)c1Cl`, the logP was 3.27.

Molecule `COc1cccc(Cl)c1C(N)=O` gave a logP of 0.59.

Turning to `O=[N+]([O-])c1cc(C(F)(F)F)cc([N+](=O)[O-])c1Cl`, the lipophilicity (logP) worked out at 2.5. `COc1c(Cl)cccc1NC(C)=O` registered a lipophilicity (logP) of 1.68.

Molecule `COc1ccc(OC)c(Cl)c1` showed a logP of 2.69. On to `CC(=O)Nc1ccc(C)c(Cl)c1`, for which the log partition coefficient (logP) amounted to 2.69. As for `NC(=O)c1c(F)cccc1Br`, the figure is 0.63; as for `CC(=O)Nc1cccc(Cl)c1Cl`, 2.09. In turn, `CC(=O)Nc1ccc(Cl)cc1[N+](=O)[O-]` had a logP of 1.78. With `CC(=O)Nc1cc(C)c(C)c(C)c1` the figure was 2.5; with `CC(=O)Nc1cc(C(F)(F)F)ccc1F`, 2.24; with `CCCCc1ccc(NC(C)=O)c(C)c1`, 3.1.

For the molecule `O=[N+]([O-])c1ccc(Cl)cc1[N+](=O)[O-]`, the logP is 2.18. On to `CCCCc1ccc(NC(C)=O)cc1`, for which the log partition coefficient (logP) amounted to 3.3. `CC(=O)Nc1c(C)cc(C)cc1[N+](=O)[O-]` had a logP of 1.18. On to `CC(=O)Nc1ccc(Cl)cc1C(F)(F)F`, for which the log partition coefficient (logP) stood at 1.98. The molecule `CCCc1cc(NC(C)=O)ccc1OC` came in with a logP of 2.72. Regarding `CC(=O)Nc1c(C)cccc1C`, the log partition coefficient (logP) came to 1.07. `COc1ccc(NC(C)=O)c([N+](=O)[O-])c1` displayed a lipophilicity (logP) of 1.09. With `CC(=O)Nc1ccccc1-c1ccccc1` the figure was 2.02; with `CC(=O)Nc1ccc(C)c(C)c1C`, 1.76. `NC(=O)c1c(Cl)cccc1[N+](=O)[O-]`: the log partition coefficient (logP) turned out to be 0.12. In the case of `Cc1cccc(C)c1C(N)=O`, the logP stood at 0.9.

Molecule `CC(=O)Nc1c([N+](=O)[O-])cccc1[N+](=O)[O-]` registered a logP of 0.56.

In turn, `COc1ccccc1F` displayed a log partition coefficient (logP) of 2.14.

In turn, `COc1cccc([N+](=O)[O-])c1C` displayed a logP of 2.68. With `Cc1ccccc1C(N)=O` the figure was 0.76.

`CC(=O)Nc1ccccc1I` returned a logP of 1.62. As for `CC(C)c1ccccc1[N+](=O)[O-]`, the figure is 3.34; as for `CC(=O)Nc1cc(C(F)(F)F)c(F)cc1F`, 2.34; as for `COc1cccc(OC)c1C`, 2.87. With `CC(C)c1ccccc1C(N)=O` the figure was 1.39; with `N#Cc1ccccc1C#N`, 0.99. In turn, `CC(=O)Nc1ccc(Cl)c(C(F)(F)F)c1` gave a logP of 3.33. In turn, `CC(=O)Nc1cc(F)cc(C(F)(F)F)c1Cl` had a logP of 2.86. As for `CC(=O)Nc1cc(Cl)cc(Cl)c1`, the figure is 3.17.

For the molecule `CCc1ccccc1OC`, the logP was determined as 3.18.

Molecule `CC(=O)Nc1cccc(Cl)c1F` displayed a logP of 1.83. As for `CC(=O)Nc1ccc(OC(F)(F)F)cc1`, the figure is 2.62. With `CC(=O)Nc1cccc(Cl)c1C` the figure was 1.82; with `CC(=O)Nc1cccc(C)c1C`, 1.35; with `CC(=O)Nc1c(F)cccc1F`, 0.69. Molecule `CC(=O)Nc1ccc(Cl)cc1Cl` returned a logP of 2.18. Turning to `CC(=O)Nc1cc(Cl)ccc1Cl`, the logP is 2.19.

As for `CC(=O)Nc1cc(Cl)c(Cl)c(Cl)c1`, the logP was 3.76. With `CCc1cccc(CC)c1NC(C)=O` the figure was 1.85; with `CC(=O)Nc1cc(C)ccc1C`, 1.47; with `NC(=O)c1c(Cl)cccc1Br`, 1. Regarding `CC(=O)Nc1c(Cl)cccc1Cl`, the lipophilicity (logP) was determined as 1.32. In turn, `CCc1cccc(C)c1NC(C)=O` gave a logP of 1.41. With `CC(=O)Nc1ccc(C)cc1C` the figure was 1.46; with `COc1c(C)cccc1C`, 3.02; with `CC(=O)Nc1cccc([N+](=O)[O-])c1`, 1.47. Take `CC(=O)Nc1cc(Cl)cc(C(F)(F)F)c1Cl`: the logP turned out to be 3.27. As for `NC(=O)c1ccccc1I`, the figure is 0.93; as for `CC(=O)Nc1c(C)cccc1Cl`, 1.22. With `COc1cccc(NC(C)=O)c1C` the figure was 1.13; with `CC(=O)Nc1ccccc1Oc1ccccc1`, 2.37.

`CC(=O)Nc1ccccc1F`: the logP amounted to 1.03. The molecule `CC(=O)Nc1cc(Cl)cc(C(F)(F)F)c1F` gave a log partition coefficient (logP) of 3.15.

`CC(=O)Nc1c(F)c(F)c(F)c(F)c1F`: the logP turned out to be 1.7. With `COc1cccc([N+](=O)[O-])c1C(N)=O` the figure was -0.26. With `CC(=O)Nc1cc(C(F)(F)F)cc(C(F)(F)F)c1` the figure was 3.72; with `CC(=O)Nc1cc(Cl)ccc1C`, 1.85.

`COc1ccc(C)c(OC)c1` yielded a logP of 2.76.

The molecule `CCc1ccccc1C(N)=O` gave a lipophilicity (logP) of 1.17. Molecule `CC(=O)Nc1ccc(Oc2ccccn2)cc1` came in with a lipophilicity (logP) of 1.57. Turning to `CCc1cccc(C(C)C)c1NC(C)=O`, the log partition coefficient (logP) is 2.1.

In turn, `CC(=O)Nc1cc(Cl)c(F)c(Cl)c1F` returned a logP of 2.9. In turn, `COc1cccc(OC)c1C(N)=O` came in with a logP of -0.22. As to `CC(=O)Nc1cc(C(F)(F)F)c(Cl)cc1Cl`, the log partition coefficient (logP) turned out to be 3.24. Molecule `CC(=O)Nc1cc(C(F)(F)F)c(Cl)cc1F` returned a logP of 3.02. `CC(=O)Nc1c(C)cccc1[N+](=O)[O-]` had a logP of 0.61.

The molecule `CCCCc1ccc(NC(C)=O)cc1C` returned a logP of 3.64. Take `CC(=O)Nc1ccc(Cl)c(Cl)c1Cl`: the lipophilicity (logP) came to 2.88.

For the molecule `CC(=O)Nc1ccc(C)cc1[N+](=O)[O-]`, the logP was 1.49.

For the molecule `CC(=O)Nc1ccc(C)c(C)c1`, the log partition coefficient (logP) is 2.1. `NC(=O)c1c(F)cccc1Cl` displayed a logP of 0.49.

`CC(=O)Nc1cc(C)cc(C)c1`: the log partition coefficient (logP) worked out at 2.17. In turn, `CC(=O)Nc1ccc(Cl)cc1F` yielded a lipophilicity (logP) of 1.91. With `CCCCc1ccc(NC(C)=O)c([N+](=O)[O-])c1`, the logP worked out at 3.1. In turn, `NC(=O)c1ccccc1C(F)(F)F` came in with a logP of 0.68. Regarding `C=CCOc1cc(NC(C)=O)c(F)cc1Cl`, the lipophilicity (logP) turned out to be 2.76.
